The results in this text go back to patent US12643884B2, “1-(2-(4-cyclopropyl-1H-1,2,3-triazol-1-yl)acetyl)-4-hydroxypyrrolidine-2-carboxa|mide derivatives as VHL inhibitors for the treatment of anemia” (Genentech, Inc., priority 2020, dated 2026).

Series [1] addresses T1, NanoLuc VHL fusion protein stably expressed in HEK 293 cells (Homo sapiens, UniProt P40337).
T1 construct: expressed in transfected cells
Kind of series: VHL HEK-293 BRET Assay (VHL NanoBRET Target Engagement Assay). Type of series: cell-based. The settings on record: for pIC50: HEK293 cells, nanoBRET, geometric mean where more than one measurement, read-out: VHL binding in cells (HEK293 nanoBRET); for Ratio cell permeability shift: ratio of nanoBRET in cells to nanoBRET +Digitonin. On the procedure: The VHL NanoBRET™ Target Engagement Assay analyzes the apparent affinity of test compounds for VHL in cells by competitive displacement of a VHL NanoBRET™ tracer reversibly bound to a NanoLuc® VHL fusion protein stably expressed in the cells.
Test compounds were transferred to the assay plate (384 Well White Non-Binding Corning Assay Plates (Corning-3574)) using an Echo 555 Liquid Handler (Labcyte) in 2.5 nL increments and, as appropriate, intermediate stock concentrations of compounds, in order to prepare a titration series. 50 nL of control compound (10 mM; parental unlabeled VHL antagonist; see structure below) and 50 nL of DMSO (negative control) were dispensed into the appropriate control wells. DMSO was backfilled to a final volume of 50 nL as required. 50 nl per well of 1 mM VHL NanoBRET™ Tracer in DMSO (NanoBRET™ Tracer-PEG2-590 (see structure below)) was transferred into each well using an Echo 555 (ultimately yielding a final concentration of 1 uM). HEK 293 RT VHL-NanoLuc® stable cells were cultured in DMEM High Glucose with Pyruvate, 10% fetal bovine serum, 2 mg/mL of Geneticin Selective Antibiotic (50 mg/ml) and 2 mM HEPES (1 M). Cells were seeded in Opti-MEM (Life Technologies-11058-021), 1.7×10^5 cells/mL, 40 μl per well into the assay plate, centrifuged at 500 rpm for 30 seconds and incubated for 2 hours. Max Signal control wells consisted of DMSO only treated wells. Minimum Signal control wells contained of 10 uM parental unlabeled VHL antagonist (control compound—see structure below). 3× Complete Substrate plus Inhibitor Solution was prepared in Opti-MEM (consists of a 1:166 dilution of NanoBRET™ Nano-Glo® Substrate plus a 1:500 dilution of Extracellular NanoLuc® Inhibitor in Opti-MEM), and 20 ul was dispensed into each well of the 384-well plate and centrifuged at 1000 rpm for 1 minute, then incubated for 2 minutes at room temperature. Background Signal control wells were prepared without tracer for background correction steps.
Plates were read using a PerkinElmer Envision Reader (model 2104-0020) equipped with Luminescence option (Mirror: BRET2 Enh (PE Barcode 659), Emission Filter: Omega 610LP (Barcode 504), 2nd Emission Filter: Umbelliferone 460 (Barcode 207), Measurement height: 6.5 mm, Measurement time: 1 s). The raw BRET ratio values were calculated by dividing the acceptor emission value (610 nm) by the donor emission value (460 nm) for each sample. To correct for background, the BRET ratio in the absence of tracer (average of no-tracer control samples) was subtracted from the BRET ratio of each sample. Raw BRET units were converted to milliBRET units (mBU) by multiplying each raw BRET value by 1,000. The normalized NanoBRET™ signal was calculated relative to the Max Signal control wells (DMSO treated control wells) and the Minimum Signal control wells. Percentage inhibition was calculated relative to the Minimum Signal control and Maximum Signal control wells. IC50 values were derived by four parameter curve fitting using the Robust method.

A further series concerns the target T2, VHL (Homo sapiens, UniProt P40337).
T2 construct: expressed in transfected cells
Kind of series: VHL nanoBRET (+Digitonin). Type of series: cell-based.

pEC50, pIC50: −log10 of the molar value.

T2 sequence (P40337 whole entry): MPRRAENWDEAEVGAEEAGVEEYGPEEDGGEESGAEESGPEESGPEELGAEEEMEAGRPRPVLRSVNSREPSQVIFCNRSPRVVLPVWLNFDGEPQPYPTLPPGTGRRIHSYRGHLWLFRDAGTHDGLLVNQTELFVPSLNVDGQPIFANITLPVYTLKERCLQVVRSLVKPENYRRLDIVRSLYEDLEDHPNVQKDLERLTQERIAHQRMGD
T2 sequence (Q15370 whole entry partner): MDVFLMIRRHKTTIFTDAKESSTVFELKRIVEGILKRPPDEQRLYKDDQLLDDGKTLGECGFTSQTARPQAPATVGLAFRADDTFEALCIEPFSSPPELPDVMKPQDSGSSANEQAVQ
T2 sequence (Q15369 whole entry partner): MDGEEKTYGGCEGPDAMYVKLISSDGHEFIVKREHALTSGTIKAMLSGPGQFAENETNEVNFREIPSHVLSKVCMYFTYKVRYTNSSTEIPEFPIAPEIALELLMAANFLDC
T1 sequence (P40337 whole entry, the tested form may be a part): as the sequence (P40337 whole entry) above
T1 sequence (Q15370 whole entry partner, the tested form may be a part): as the sequence (Q15370 whole entry partner) above
T1 sequence (Q15369 whole entry partner, the tested form may be a part): as the sequence (Q15369 whole entry partner) above

Broadly, the pEC50 is −log10 of the EC50, conventionally taken in molar units. `CNC(=O)[C@@H]1C[C@@H](O)CN1C(=O)[C@@H](n1cc(C2CC2)nn1)C(C)(C)C` [Final product from Example S2, (2S,4R)-1-((S)-2-(4-cyclopropyl-1H-1,2,3-triazol-1-yl)-3,3-dimethylbutanoyl)-4-hydroxy-N-methylpyrrolidine-2-carboxamide]: in series [1], the pIC50 is 5.52 and the “Ratio cell permeability shift” value was determined as 1.17. For the same compound, on VHL, the pEC50 was 5.59.

As for `CNC(=O)[C@@H]1C[C@@H](OC(C)=O)CN1C(=O)[C@@H](n1cc(C2CC2)nn1)C(C)(C)C` [Final product from Example S12, (3R,5S)-1-((S)-2-(4-cyclopropyl-1H-1,2,3-triazol-1-yl)-3,3-dimethylbutanoyl)-5-(methylcarbamoyl)pyrrolidin-3-yl Acetate], in series [1], the pIC50 is 4.20 and the “Ratio cell permeability shift” value turned out to be 0.68. This compound also had a negative-log EC50 (pEC50) at VHL of 4.03.

For `CNC(=O)[C@@H]1C[C@@H](O)CN1C(=O)[C@H](C1CCN(S(C)(=O)=O)CC1)n1cc(C2CC2)nn1` [Final product from Example S10, (2S,4R)-1-((S)-2-(4-cyclopropyl-1H-1,2,3-triazol-1-yl)-2-(1-(methylsulfonyl)piperidin-4-yl)acetyl)-4-hydroxy-N-methylpyrrolidine-2-carboxamide], in series [1], the pIC50 was 5.00 and the “Ratio cell permeability shift” value stood at 4.83. The same compound showed a pEC50 at VHL of 5.68.

As to `CNC(=O)[C@@H]1C[C@@H](O)CN1C(=O)C(=C(C)C)n1cc(C2CC2)nn1` [Final product from Example S27, (2S, 4R)-1-[2-(4-cyclopropyltriazol-1-yl)-3-methyl-but-2-enoyl]-4-hydroxy-N-methyl-pyrrolidine-2-carboxamide], the “Ratio cell permeability shift” value in series [1] is on record as 0.96. In addition, at VHL, the negative-log EC50 (pEC50) is 5.31.

`CNC(=O)[C@@H]1C[C@@H](O)CN1C(=O)[C@@H](C(C)C)n1cc(C2CC2)nn1` (single isomer, unassigned) [Isomer B from Example S11]: in series [1], the pIC50 was under 4.00. In addition, on VHL, the pEC50 is under 4.00.

Take `CNC(=O)[C@@H]1C[C@@H](O)CN1C(=O)[C@H](C(C)C)n1nnc2cc(F)c(F)cc21` (single isomer, unassigned) [Final product from Example S26]: in series [1], the pIC50 was 5.99 and the “Ratio cell permeability shift” value was 0.51. This compound also had a negative logarithm of the EC50 (pEC50) at VHL of 5.70.

In the case of `CNC(=O)[C@@H]1C[C@@H](O)CN1C(=O)[C@H](C(C)C)n1cc(-c2cccs2)nn1` [Final product from Example S28, (2S, 4R)-4-hydroxy-N-methyl-1-((S)-3-methyl-2-(4-(thiophen-2-yl)-1H-1,2,3-triazol-1-yl)butanoyl)pyrrolidine-2-carboxamide], in series [1], the pIC50 was 6.23 and the “Ratio cell permeability shift” value amounted to 0.75. The same compound showed a negative-log EC50 (pEC50) on VHL of 6.10.

Turning to `CNC(=O)[C@@H]1C[C@@H](O)CN1C(=O)[C@H](C1CCN(C)CC1)n1cc(C2CC2)nn1` [Final product from Example S8, (2S,4R)-1-((S)-2-(4-cyclopropyl-1H-1,2,3-triazol-1-yl)-2-(1-methylpiperidin-4-yl)acetyl)-4-hydroxy-N-methylpyrrolidine-2-carboxamide], the “Ratio cell permeability shift” value in series [1] is over 10.00. Further, the pEC50 on VHL is 4.97.

As to `CNC(=O)[C@@H]1C[C@@H](O)CN1C(=O)[C@H](C(C)C)n1cc(-c2cncnc2)nn1` [Final product from Example S39, (2S,4R)-4-hydroxy-N-methyl-1-((S)-3-methyl-2-(4-(pyrimidin-5-yl)-1H-1,2,3-triazol-1-yl)butanoyl)pyrrolidine-2-carboxamide], in series [1], the pIC50 was 5.77 and the “Ratio cell permeability shift” value was 2.35. At VHL, the negative-log EC50 (pEC50) is 6.14.

`CNC(=O)[C@@H]1C[C@@H](O)CN1C(=O)[C@H](C1CCCCC1)n1cc(-c2ccco2)nn1` (single isomer, unassigned) [Final product from Example S23]: in series [1], the pIC50 is 6.49 and the “Ratio cell permeability shift” value was found to be 0.68. Moreover, the negative-log EC50 (pEC50) on VHL was 6.33.

With `CNC(=O)[C@@H]1C[C@@H](O)CN1C(=O)[C@H](C(C)C)n1cc(-c2ccncc2)nn1` [Final product from Example S37, (2S,4R)-4-hydroxy-N-methyl-1-((S)-3-methyl-2-(4-(pyridin-4-yl)-1H-1,2,3-triazol-1-yl)butanoyl)pyrrolidine-2-carboxamide], in series [1], the pIC50 was 5.71 and the “Ratio cell permeability shift” value was found to be 1.33. Further, the negative-log EC50 (pEC50) at VHL is 5.83.

With `CNC(=O)[C@@H]1C[C@@H](O)CN1C(=O)[C@H](C(C)C)n1cc(C2CCCC2)nn1` [Final product from Example S22, (2S, 4R)-1-[(2S)-2-(4-cyclopentyltriazol-1-yl)-3-methyl-butanoyl]-4-hydroxy-N-methyl-pyrrolidine-2-carboxamide], in series [1], the pIC50 is 5.49 and the “Ratio cell permeability shift” value was found to be 1.15. At VHL, this compound showed a pEC50 of 5.56.

With `CC(C)(C)[C@@H](C(=O)N1C[C@H](O)C[C@H]1C(=O)NCCF)n1cc(C2CC2)nn1` [Final product from Example S16, (2S,4R)-1-((S)-2-(4-cyclopropyl-1H-1,2,3-triazol-1-yl)-3,3-dimethylbutanoyl)-N-(2-fluoroethyl)-4-hydroxypyrrolidine-2-carboxamide], in series [1], the pIC50 is 5.61 and the “Ratio cell permeability shift” value is on record as 0.68. At VHL, this compound had a pEC50 of 5.45.

With `CNC(=O)[C@@H]1C[C@@H](O)CN1C(=O)[C@H](C(C)C)n1cc(-c2cccnc2)nn1` [Final product from Example S36, (2S,4R)-4-hydroxy-N-methyl-1-((S)-3-methyl-2-(4-(pyridin-3-yl)-1H-1,2,3-triazol-1-yl)butanoyl)pyrrolidine-2-carboxamide], in series [1], the pIC50 was 5.91 and the “Ratio cell permeability shift” value is reported as 1.21. In addition, the pEC50 on VHL was 6.00.

As for `CNC(=O)[C@@H]1C[C@@H](O)CN1C(=O)[C@H](C(C)C)n1cc(C2(C)CC2)nn1` [Final product from Example S20, (2S,4R)-4-hydroxy-N-methyl-1-((S)-3-methyl-2-(4-(1-methylcyclopropyl)-1H-1,2,3-triazol-1-yl)butanoyl)pyrrolidine-2-carboxamide], in series [1], the pIC50 was 5.67 and the “Ratio cell permeability shift” value is listed as 1.71. This compound also showed a negative-log EC50 (pEC50) at VHL of 5.91.

`CNC(=O)[C@@H]1C[C@@H](O)CN1C(=O)[C@H](C(C)C)n1cc(-c2ccccn2)nn1` [Final product from Example S35, (2S,4R)-4-hydroxy-N-methyl-1-((S)-3-methyl-2-(4-(pyridin-2-yl)-1H-1,2,3-triazol-1-yl)butanoyl)pyrrolidine-2-carboxamide]: in series [1], the pIC50 was 5.77 and the “Ratio cell permeability shift” value is recorded as 0.85. Further, the negative-log EC50 (pEC50) on VHL is 5.70.

Regarding `CNC(=O)[C@@H]1C[C@@H](O)CN1C(=O)[C@H](C1CCCCC1)n1cc(C2CC2)nn1` [Final product from Example S3, (2S,4R)-1-((S)-2-cyclohexyl-2-(4-cyclopropyl-1H-1,2,3-triazol-1-yl)acetyl)-4-hydroxy-N-methylpyrrolidine-2-carboxamide], in series [1], the pIC50 was 5.79 and the “Ratio cell permeability shift” value came to 0.96. This compound showed a negative-log EC50 (pEC50) on VHL of 5.78.

As for `CNC(=O)[C@@H]1C[C@@H](O)CN1C(=O)[C@H](C(C)C)n1cc(-c2ccc[nH]2)nn1` (mixture of isomers) [Final product from Example S29, (2S, 4R)-4-hydroxy-N-methyl-1-[rac-(2S)-3-methyl-2-[4-(1H-pyrrol-2-yl)triazol-1-yl]butanoyl]pyrrolidine-2-carboxamide], in series [1], the pIC50 was 5.58 and the “Ratio cell permeability shift” value is given as 1.26. Besides, on VHL, the negative logarithm of the EC50 (pEC50) was 5.68.
